Test results published in ChEMBL document CHEMBL1201862, “PubChem BioAssay data set” (2004).
Calls of active or inactive are those of the source.

How the values were obtained:
[1] = system: HEK293; assay: inhibition of NOD1-driven NF-kB reporter – cell-based, luminescence, uHTS, primary screen (AID 1578); format: functional; conditions: Homo sapiens
[2] = system: HEK293; assay: cells; format: functional, cell-based; conditions: Homo sapiens
[3] = system: HEK293; assay: cells; format: functional, cell-based; conditions: Homo sapiens; remark: listed apart in the source
[4] = molecular target: Nucleotide-binding oligomerization domain-containing protein 2 (Homo sapiens, UniProt Q9HC29); assay: inhibition of NOD2-driven NF-kB reporter – cell-based, luminescence, uHTS, HEK293 (AID 1566); format: functional
Nucleotide-binding oligomerization domain-containing protein 2, sequence (Q9HC29 whole entry, the tested form may be a part): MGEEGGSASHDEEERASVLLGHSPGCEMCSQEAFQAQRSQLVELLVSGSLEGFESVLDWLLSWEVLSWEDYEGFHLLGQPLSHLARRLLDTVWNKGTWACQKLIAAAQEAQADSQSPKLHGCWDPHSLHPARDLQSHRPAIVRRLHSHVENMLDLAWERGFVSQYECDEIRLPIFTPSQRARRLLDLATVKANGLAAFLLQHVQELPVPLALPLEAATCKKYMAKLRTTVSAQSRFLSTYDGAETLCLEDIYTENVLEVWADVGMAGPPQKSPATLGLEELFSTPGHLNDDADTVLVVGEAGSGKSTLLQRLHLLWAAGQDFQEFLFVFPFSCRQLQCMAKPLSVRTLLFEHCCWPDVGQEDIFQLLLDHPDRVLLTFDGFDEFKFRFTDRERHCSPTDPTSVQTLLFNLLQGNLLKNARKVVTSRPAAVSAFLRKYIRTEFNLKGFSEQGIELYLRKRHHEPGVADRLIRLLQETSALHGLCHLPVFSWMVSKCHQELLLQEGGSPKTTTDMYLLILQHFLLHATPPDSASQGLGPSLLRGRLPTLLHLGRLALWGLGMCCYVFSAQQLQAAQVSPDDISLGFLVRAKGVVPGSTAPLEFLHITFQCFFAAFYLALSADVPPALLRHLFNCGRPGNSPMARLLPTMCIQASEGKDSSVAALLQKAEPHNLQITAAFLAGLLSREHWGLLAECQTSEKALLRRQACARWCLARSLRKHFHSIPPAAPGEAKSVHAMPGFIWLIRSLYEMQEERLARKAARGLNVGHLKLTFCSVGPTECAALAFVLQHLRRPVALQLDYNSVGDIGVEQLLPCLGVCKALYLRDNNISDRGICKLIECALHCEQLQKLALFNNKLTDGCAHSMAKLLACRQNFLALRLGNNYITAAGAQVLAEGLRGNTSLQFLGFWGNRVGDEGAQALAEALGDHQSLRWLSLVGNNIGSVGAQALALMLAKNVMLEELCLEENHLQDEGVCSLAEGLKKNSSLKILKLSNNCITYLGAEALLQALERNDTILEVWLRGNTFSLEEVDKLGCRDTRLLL

[5] = system: HEK293; assay: NOD2 signaling inhibitors in MDP-stimulated cells, cell-based, uHTS, luminescence (AID 2001); format: functional; conditions: Homo sapiens
[6] = system: HEK293; assay: cells; format: functional, cell-based; conditions: Homo sapiens; remark: listed apart in the source
[7] = NIH-3T3 fibroblast cytotoxicity, dose response, cytotoxicity control, cell-based, fluorescence, Alamar Blue, secondary assay (AID 2327); format: functional;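 also: NIH-3T3 mouse fibroblasts cultured with fluconazole at 8 µg/mL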
[8] = fluconazole-exposed Candida albicans growth modulators – fluorescence, retest, confirmation (AID 2467); format: functional, cell-based
[9] = molecular target: T1, Rac GTPase-activating protein 1 (Homo sapiens, UniProt Q9H0H5); assay: blockers of MgcRacGAP-driven Rac1 GTP hydrolysis – biochemical, ADP Hunter fluorescence, primary and confirmatory, confirmation (AID 624330); format: functional
T1 sequence (Q9H0H5 whole entry): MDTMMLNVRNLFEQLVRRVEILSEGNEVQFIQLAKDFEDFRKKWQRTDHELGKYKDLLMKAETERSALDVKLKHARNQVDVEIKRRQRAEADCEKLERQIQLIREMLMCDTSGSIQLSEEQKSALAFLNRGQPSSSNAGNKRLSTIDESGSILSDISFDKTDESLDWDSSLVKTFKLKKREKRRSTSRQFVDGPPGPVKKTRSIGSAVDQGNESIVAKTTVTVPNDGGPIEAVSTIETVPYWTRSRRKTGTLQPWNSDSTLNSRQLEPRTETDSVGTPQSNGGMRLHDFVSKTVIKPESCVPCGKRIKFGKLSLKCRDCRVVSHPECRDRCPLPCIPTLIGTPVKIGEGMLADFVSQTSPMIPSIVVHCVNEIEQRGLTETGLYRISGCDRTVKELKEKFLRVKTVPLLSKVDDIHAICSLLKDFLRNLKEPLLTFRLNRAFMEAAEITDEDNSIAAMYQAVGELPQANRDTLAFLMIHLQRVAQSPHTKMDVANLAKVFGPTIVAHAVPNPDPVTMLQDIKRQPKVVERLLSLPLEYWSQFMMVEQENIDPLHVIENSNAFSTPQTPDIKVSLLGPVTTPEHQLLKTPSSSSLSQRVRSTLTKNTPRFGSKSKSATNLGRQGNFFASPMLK

[10] = molecular target: T2, Ubiquitin-conjugating enzyme E2 N (Homo sapiens, UniProt P61088); format: functional;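 also: Dose-response confirmation in a TR-FRET assay detecting UBC13-driven polyubiquitin chain formation, inhibition measured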
T2 sequence (P61088 whole entry): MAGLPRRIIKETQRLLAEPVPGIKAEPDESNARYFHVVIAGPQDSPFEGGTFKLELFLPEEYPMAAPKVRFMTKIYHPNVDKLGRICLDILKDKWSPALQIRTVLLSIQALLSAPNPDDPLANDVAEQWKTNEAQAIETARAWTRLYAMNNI

[11] = Trypanosoma cruzi growth suppression in host cells – NIH3T3 host cells, beta-gal luminescence, confirmation (AID 2044); format: functional, cell-based;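 also: intracellular parasites grown in NIH/3T3 mouse fibroblasts as host cells; luminescent beta-galactosidase reporter signal from transgenic T. cruzi replicating inside host cells; inhibitors lower the luminescence signal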
[12] = NIH3T3 cell viability loss – ATP luminescence, mouse fibroblasts, counter-screen, dose response (AID 2010); format: functional, cell-based;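 also: cells exposed to compound for about 90 hours before reading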
[13] = molecular target: DNA dC->dU-editing enzyme APOBEC-3A (Homo sapiens, UniProt P31941); assay: Dose Response confirmation of small molecule APOBEC3A DNA Deaminase Inhibitors via a fluorescence-based single-stranded DNA deaminase assay. [Related pubchem assays (depositor defined):AID493011, AID493024]; format: functional
DNA dC->dU-editing enzyme APOBEC-3A, sequence (P31941 whole entry): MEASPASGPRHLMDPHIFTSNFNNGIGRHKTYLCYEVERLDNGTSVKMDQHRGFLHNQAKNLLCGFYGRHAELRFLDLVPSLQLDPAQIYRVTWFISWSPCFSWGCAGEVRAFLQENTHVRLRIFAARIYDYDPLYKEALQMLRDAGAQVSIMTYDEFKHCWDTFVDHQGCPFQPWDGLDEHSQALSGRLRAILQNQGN

[14] = molecular target: DNA dC->dU-editing enzyme APOBEC-3G (Homo sapiens, UniProt Q9HC16); format: functional;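 also: Dose-response counterscreen measuring inhibition of APOBEC3G DNA deaminase activity, run while confirming APOBEC3A inhibitors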
DNA dC->dU-editing enzyme APOBEC-3G, sequence (Q9HC16 whole entry): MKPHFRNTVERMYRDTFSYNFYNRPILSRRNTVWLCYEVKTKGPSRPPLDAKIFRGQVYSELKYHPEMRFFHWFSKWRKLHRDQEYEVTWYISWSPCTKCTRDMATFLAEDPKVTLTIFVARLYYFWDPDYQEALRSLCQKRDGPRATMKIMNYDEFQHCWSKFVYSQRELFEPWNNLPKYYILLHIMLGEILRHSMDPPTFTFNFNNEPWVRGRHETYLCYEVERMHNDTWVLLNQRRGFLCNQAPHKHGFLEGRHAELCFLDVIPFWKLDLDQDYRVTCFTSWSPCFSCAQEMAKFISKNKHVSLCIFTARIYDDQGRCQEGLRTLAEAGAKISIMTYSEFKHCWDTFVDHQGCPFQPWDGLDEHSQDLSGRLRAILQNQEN

[15] = molecular target: G-protein coupled receptor 55 (Homo sapiens, UniProt Q9Y2T6); assay: inhibition of LPI-stimulated GPR55 beta-arrestin translocation – imaging, U2OS, beta-arrestin-GFP, LPI agonist, primary screen (AID 2013); format: functional;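 also: antagonist potency measured as reduced agonist-driven arrestin aggregation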
G-protein coupled receptor 55, sequence (Q9Y2T6 whole entry): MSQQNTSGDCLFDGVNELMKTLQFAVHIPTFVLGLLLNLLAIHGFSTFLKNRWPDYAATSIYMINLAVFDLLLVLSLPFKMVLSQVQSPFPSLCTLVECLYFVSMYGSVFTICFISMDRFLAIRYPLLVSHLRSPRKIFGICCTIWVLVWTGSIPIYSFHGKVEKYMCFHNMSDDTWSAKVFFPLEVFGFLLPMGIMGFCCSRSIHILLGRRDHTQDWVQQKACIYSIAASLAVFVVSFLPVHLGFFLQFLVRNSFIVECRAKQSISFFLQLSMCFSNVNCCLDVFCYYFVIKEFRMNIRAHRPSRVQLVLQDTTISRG

[16] = molecular target: T3, Alkaline phosphatase, tissue-nonspecific isozyme (Homo sapiens, UniProt P05186); assay: potency against alkaline phosphatase TNAP – biochemical, luminescent, dose response, SAR follow-up (AID 1056)
T3 sequence (P05186 whole entry): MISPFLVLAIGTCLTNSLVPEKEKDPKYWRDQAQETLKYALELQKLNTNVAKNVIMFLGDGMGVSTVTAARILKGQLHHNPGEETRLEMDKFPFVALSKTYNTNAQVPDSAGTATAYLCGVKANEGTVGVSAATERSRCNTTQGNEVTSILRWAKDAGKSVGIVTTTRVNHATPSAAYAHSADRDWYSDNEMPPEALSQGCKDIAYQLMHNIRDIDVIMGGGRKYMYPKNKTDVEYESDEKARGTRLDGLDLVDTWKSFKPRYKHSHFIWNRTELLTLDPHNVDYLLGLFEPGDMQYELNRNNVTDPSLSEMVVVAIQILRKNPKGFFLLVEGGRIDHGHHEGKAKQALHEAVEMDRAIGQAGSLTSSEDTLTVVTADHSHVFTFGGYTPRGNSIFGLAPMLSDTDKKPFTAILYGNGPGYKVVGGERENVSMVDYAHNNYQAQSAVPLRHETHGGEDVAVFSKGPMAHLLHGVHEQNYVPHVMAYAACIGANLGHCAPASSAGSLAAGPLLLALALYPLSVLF

[17] = system: Escherichia coli; assay: microbe, parasite or virus in culture
[18] = molecular target: Peroxisome proliferator-activated receptor gamma/Nuclear receptor coactivator 2 (Homo sapiens, UniProt P37231); format: functional;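 also: agonist potency for raising coactivator recruitment to the receptor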
[19] = molecular target: Peroxisome proliferator-activated receptor gamma/Nuclear receptor coactivator 1 (Homo sapiens, UniProt P37231); format: functional;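 also: agonist potency as compounds enhance coactivator SRC-1 recruitment to PPARgamma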
Peroxisome proliferator-activated receptor gamma/Nuclear receptor coactivator 1, sequence (P37231 whole entry): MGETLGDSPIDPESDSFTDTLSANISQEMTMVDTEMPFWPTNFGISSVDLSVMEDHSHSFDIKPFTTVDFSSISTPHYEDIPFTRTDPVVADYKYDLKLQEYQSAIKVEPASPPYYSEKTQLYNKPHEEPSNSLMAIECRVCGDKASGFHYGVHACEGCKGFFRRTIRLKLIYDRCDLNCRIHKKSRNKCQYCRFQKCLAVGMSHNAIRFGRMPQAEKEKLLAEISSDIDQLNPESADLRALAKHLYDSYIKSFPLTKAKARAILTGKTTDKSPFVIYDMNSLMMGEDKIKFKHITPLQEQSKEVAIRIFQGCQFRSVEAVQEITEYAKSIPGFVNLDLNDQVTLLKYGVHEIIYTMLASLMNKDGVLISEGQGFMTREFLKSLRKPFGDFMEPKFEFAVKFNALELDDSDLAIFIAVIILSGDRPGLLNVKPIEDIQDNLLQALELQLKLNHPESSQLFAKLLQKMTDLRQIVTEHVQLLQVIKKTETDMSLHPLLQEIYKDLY
Peroxisome proliferator-activated receptor gamma/Nuclear receptor coactivator 1, sequence (Q15788 whole entry, further chain): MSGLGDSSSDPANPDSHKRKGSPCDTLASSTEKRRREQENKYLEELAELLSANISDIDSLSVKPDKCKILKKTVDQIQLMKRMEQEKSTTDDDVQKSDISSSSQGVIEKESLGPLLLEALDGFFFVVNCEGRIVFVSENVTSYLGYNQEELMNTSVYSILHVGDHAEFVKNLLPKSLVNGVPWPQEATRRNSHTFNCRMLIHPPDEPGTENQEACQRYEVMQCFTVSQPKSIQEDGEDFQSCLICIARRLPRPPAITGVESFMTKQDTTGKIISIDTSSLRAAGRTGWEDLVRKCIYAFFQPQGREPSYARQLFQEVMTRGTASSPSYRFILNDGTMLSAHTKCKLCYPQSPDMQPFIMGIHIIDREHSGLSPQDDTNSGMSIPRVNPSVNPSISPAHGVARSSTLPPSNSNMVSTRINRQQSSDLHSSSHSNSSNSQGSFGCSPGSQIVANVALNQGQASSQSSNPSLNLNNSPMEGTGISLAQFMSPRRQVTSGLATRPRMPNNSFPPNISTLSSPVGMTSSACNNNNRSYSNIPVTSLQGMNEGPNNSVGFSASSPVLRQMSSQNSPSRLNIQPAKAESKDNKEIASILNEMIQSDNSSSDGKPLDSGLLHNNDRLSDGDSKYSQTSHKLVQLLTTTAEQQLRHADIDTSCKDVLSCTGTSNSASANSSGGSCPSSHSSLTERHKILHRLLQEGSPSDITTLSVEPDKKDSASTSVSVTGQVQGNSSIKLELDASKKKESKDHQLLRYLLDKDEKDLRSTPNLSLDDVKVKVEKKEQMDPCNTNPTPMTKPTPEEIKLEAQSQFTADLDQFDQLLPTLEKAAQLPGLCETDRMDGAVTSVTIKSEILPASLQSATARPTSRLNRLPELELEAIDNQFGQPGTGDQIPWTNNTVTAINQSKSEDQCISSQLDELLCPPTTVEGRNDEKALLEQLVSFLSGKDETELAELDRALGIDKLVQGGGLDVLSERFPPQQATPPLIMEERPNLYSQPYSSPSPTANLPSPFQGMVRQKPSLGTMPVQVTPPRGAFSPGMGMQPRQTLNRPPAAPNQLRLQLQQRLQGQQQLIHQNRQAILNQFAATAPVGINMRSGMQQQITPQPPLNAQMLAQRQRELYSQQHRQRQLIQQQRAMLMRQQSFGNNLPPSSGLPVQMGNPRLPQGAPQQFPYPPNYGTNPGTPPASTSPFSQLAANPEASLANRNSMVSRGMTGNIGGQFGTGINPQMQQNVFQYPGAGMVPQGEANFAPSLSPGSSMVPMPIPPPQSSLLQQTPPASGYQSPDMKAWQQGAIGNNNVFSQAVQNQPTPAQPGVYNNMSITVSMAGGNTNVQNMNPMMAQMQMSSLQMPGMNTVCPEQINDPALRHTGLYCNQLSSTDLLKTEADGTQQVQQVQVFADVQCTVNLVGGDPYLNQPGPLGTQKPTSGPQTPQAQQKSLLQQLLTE

[20] = molecular target: Peroxisome proliferator-activated receptor gamma/Nuclear receptor coactivator 3 (Homo sapiens, UniProt P37231); format: functional;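 also: agonist potency for raising coactivator recruitment to the receptor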
[21] = molecular target: Induced myeloid leukemia cell differentiation protein Mcl-1 (Homo sapiens, UniProt Q07820); format: functional
Induced myeloid leukemia cell differentiation protein Mcl-1, sequence (Q07820 whole entry): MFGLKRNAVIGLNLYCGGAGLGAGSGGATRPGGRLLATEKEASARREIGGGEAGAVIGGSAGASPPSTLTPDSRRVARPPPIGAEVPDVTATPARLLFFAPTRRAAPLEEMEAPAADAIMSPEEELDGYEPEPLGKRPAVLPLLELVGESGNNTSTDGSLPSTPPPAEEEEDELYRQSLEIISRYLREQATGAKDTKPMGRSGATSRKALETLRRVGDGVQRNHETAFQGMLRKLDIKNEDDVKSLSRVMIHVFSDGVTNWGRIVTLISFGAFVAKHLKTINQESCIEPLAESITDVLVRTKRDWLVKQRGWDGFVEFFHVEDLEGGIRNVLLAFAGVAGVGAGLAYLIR

[22] = viability of uninfected HEp-2 cells – cell-based, HTS, cytotoxicity control for RSV inhibitor project, dose response (AID 2410); format: functional; conditions: human respiratory syncytial virus

With `Cc1ccc(S(=O)(=O)/C(=C/Cl)NC(=O)c2ccccc2)cc1` the EC50 [1] was 6.37 µM (active), the IC50 [2] was 3.6 µM (active) and the IC50 [3] was > 20 µM (inactive). The EC50 [4] was 14.3 µM (active), the IC50 [5] was 3.32 µM (active) and the IC50 [6] was > 20 µM (inactive).
In the case of `Cc1ccc(O)c(/N=C/c2cc(Cc3ccccc3)cc([N+](=O)[O-])c2O)c1`, the EC50 [7] is reported as 13.8 µM (active), the EC50 [1] is reported as 6.21 µM (active) and the IC50 [2] is reported as > 20 µM (inactive). For the same compound, the EC50 [8] was 3.37 µM (active), the IC50 [3] was > 20 µM (inactive) and the EC50 [4] was 9.92 µM (active). The IC50 [5] was 12.4 µM (inactive), the IC50 [6] was > 20 µM (inactive) and the IC50 [9] was 37.8 µM (active).
For `Cn1c(=O)c2c(ncn2Cc2ccccc2)n(C)c1=O`, the IC50 [10] was > 20 µM (inactive).
In the case of `COc1ccc(/C=N/NS(=O)(=O)c2ccc(F)cc2)cc1COc1cc(F)ccc1[N+](=O)[O-]`, the EC50 [1] is reported as > 20 µM (inactive), the IC50 [2] is reported as 6.45 µM (active) and the IC50 [3] is reported as > 20 µM (inactive). For the same compound, the EC50 [4] was > 20 µM (inactive), the IC50 [5] was > 20 µM (inactive) and the EC50 [11] was 2.19 µM (active). The IC50 [6] was > 20 µM (inactive) and the EC50 [12] was > 60 µM (inconclusive).
In the case of `O=C(/C=C/c1ccco1)N1CCN(S(=O)(=O)c2cccc([N+](=O)[O-])c2)CC1`, the IC50 [13] is reported as 15.5 µM (active) and the IC50 [14] is reported as 23.6 µM (active).
In the case of `CNC(=O)c1ccc(NC(=O)CC23CC4CC(CC(C4)C2)C3)cc1`, the IC50 [15] is reported as 3.14 µM (active).
In the case of `O=C(Cn1ccnc1-c1ccccc1)c1ccc(O)c(O)c1`, the IC50 [16] is reported as > 100 µM (inactive).
With `CC(C)(C)OC(=O)[C@H](Cc1ccccc1)NC(=O)c1[nH]cnc1C(=O)NC1CCN(C(=O)OC(C)(C)C)CC1` the IC50 [15] was 5.3 µM (active) and the AC50 [17] was 19 µM (active).
In the case of `CC(C)(O)C#Cc1ccc(CN2CCN(C3CCCCC3)C(CCO)C2)cc1` (stereo not drawn), the EC50 [18] is reported as > 79.4 µM (not active), the EC50 [19] is reported as > 79.4 µM (not active) and the EC50 [20] is reported as > 79.4 µM (not active). For the same compound, the IC50 [21] was 21.2 µM (not active).
For `COc1cc(NS(=O)(=O)c2ccc(Nc3nc(-c4ccccc4)cs3)cc2)nc(OC)n1`, the CC50 [22] was 11.3 µM (active) and the IC50 [15] was 4.49 µM (active).
In the case of `CCCCn1c(N)c(N(CCOC)C(=O)c2cc(-c3ccc(OC)c(OC)c3)nc3ccccc23)c(=O)[nH]c1=O`, the IC50 [13] is reported as 7.62 µM (active) and the IC50 [14] is reported as 9.16 µM (active).
